Measured values published in patent US6436947B1, “Trans cyclopentanyl purine analogs useful as immunosuppressants” (Aventis Pharmaceuticals Inc., priority 1991, dated 2002).
Where a name gives a salt, the structure may show the parent alone.

Columns and labels:
[1] = system: Major Histocompatibility complex (MHC) class II antigen levels on macrophages; assay: Regulation of MHC class II expression on macrophages from M. tuberculosis-treated rats (flow cytometry, OX-6/OX-42); format: cell-based, rat; conditions: 10 μM, 18 hours; positive control 59%
Experimental: Using the method of Edwards (J. of Cell Biochemistry 5E, 155(1991)), the ability of a compound of formula (1) to reduce Major Histocompatibility complex (MHC) class II antigen levels on macrophages (MΦ) obtained from M. tuberculosis-treated rats may be measured. Cells obtained from treated rats are plated into tissue culture for a period of 4 hours to purify adherent cells, then treated with increasing levels of drug for a period of 18 hours. After this incubation period, cells are scraped from the dishes and stained using flow cytometry analysis with various monoclonal antibodies such as OX-6 a monoclonal antibody specific for MHC class II antigens and OX-42 a monoclonal antibody specific for rat macrophages.

[2] = system: Rat macrophage antigen presentation to mBSA-reactive T-cell hybridoma / Interleukin-2 production; assay: Regulation of macrophage antigen presentation to rat T-cell hybridoma (Interleukin-2 production); format: cell-based
Experimental: Using the method of Ku (Cellular Immunology 130, (1990)), and a Lewis (LEW/N) rat T-cell hybridoma reactive with the protein methylated bovine serum albumin (mBSA), the ability of a compound of formula (1) to regulate MΦ antigen presentation in vitro may be measured. Peritoneal macrophages obtained from LEW/N rats are plated into tissue culture and treated with 100 μg of mBSA and drug. A control is prepared similarly. After a period of 18 hours the cells are washed and incubated with the T-cell hybridoma for an additional 12 hours. Supernatants from these cultures are obtained and measured for content of Interleukin-2, a T-cell derived lymphokine which is produced by activated T-cells. […] Rat macrophage antigen presentation and the subsequent production of Interleukin-2 are inhibited when drug is administered over a concentration range from 0.1 to 100 μM as illustrated in the following table.

[3] = system: endotoxin-induced septic shock in CF1 mice; assay: Mouse endotoxin lethality model (D-galactosamine/LPS); format: in vivo; conditions: 100 mg/kg i.p., pretreated t=-1 hr, 18 mg D-glactoseamine and 50 ng LPS, observed 8-72 hour
Experimental: Using the method of Silverstein, (J. Exp. Med. 173, 357 (1991)) a mouse endotoxin lethality model may be used to determine if a compound of formula (1) has the ability to inhibit endotoxin-induced septic shock which is dependent on the production of Tumor Necrosis Factor-α (TNF-α). CF1 mice pretreated at time (t)=−1 hr with drug are challenged with 18 mg of D-glactoseamine and 50 ng of LPS, then observed for death over an 8-72 hour period.

[4] = system: TNF-a production by peripheral blood mononuclear cells; assay: Inhibition of Tumor Necrosis Factor alpha in LPS-stimulated PBMC adherent cells (ELISA); format: cell-based; conditions: human PBMC adherent cells, 1 μg/ml LPS, 18 hours
Experimental: Peripheral blood mononuclear cells (PBMC) are isolated from venous blood collected from healthy volunteers in sodium citrate (5 ml of 3.6% sodium citrate for 45 ml of blood) by density gradient centrifugation of 5 minutes at 1500 rpm. The PBMC are resuspended in about 10 ml of RPMI-1640 with antibiotics. Approximately 2×10^6 cells of PBMC are added to tissue culture plates, incubated for 45-60 minutes at 37 C with 5% CO2, aspirated, and washed twice by adding about 0.5 ml fresh RPMI-1640 with 10% non-mitogenic FBS (RPMI complete) and shaking for 15 to 30 seconds. 1.0 ml RPMI-1640 is added per well to the remaining adherent cells, which are pretreated with test compound solution about 15 minutes prior to endotoxin stimulation (1 μg/ml lipopolysaccharide from E. coli or solvent concentrations equal to those of test compounds.
Cultures are incubated for 18 hours t 37 C in 5% CO2. Supernatants are tested from TNF-a using a commercial ELISA kit (Cistron, Pine Brook, N.J.). The IC50 is determined using SOFTmax software program.

Row | Compound | OX-6/OX-42 double positive macrophages [1] [%] | T-cell activation ([2]; 0.1 to 100 μM) | % Inhibition (antigen presentation / Interleukin-2 production) ([2]; in vitro concentration 0.1 μM) [%] | % Inhibition (antigen presentation / Interleukin-2 production) ([2]; in vitro concentration 1.0 μM) [%] | % Inhibition (antigen presentation / Interleukin-2 production) ([2]; in vitro concentration 10.0 μM) [%] | % Inhibition (antigen presentation / Interleukin-2 production) ([2]; in vitro concentration 100.0 μM) [%] | protection against endotoxin lethality [3] | IC50 [4] [µM]
1 | Cl.Nc1ncnc2c1ncn2[C@@H]1CC[C@@H](O)C1 (relative stereo) [Example 1, (1R,3R)-trans-1(9-Adenyl)cyclopentan-3-ol Hydrochloride] | 39 | inhibits T-cell activation | 7.6 | 30.9 | 48.7 | 55.3 | protects against endotoxin lethality | 9
2 | Nc1nc(Cl)nc2c1ncn2[C@@H]1CC[C@@H](O)C1 (relative stereo) [Example 6, (1R,3R)-trans-1-[9-(6-Amino-2-chloropurinyl)]cyclopentan-3-ol Hydrochloride] | – | – | – | – | – | – | – | 4.1
3 | Nc1ncnc2c1ncn2[C@@H]1CCC[C@H]1O (racemic) [(±)-Trans-1-(9-adenyl)-2-hydroxycyclopentane, reference compound] | – | – | – | – | – | – | – | 22.2
